Consider 13 compounds from ChEMBL document CHEMBL1201862, “PubChem BioAssay data set” (2004).

What all share (assay): NCI tumour cell line growth inhibition, 48 h
Assay [1] relates to A498.
Assay [2] deals with CAKI-1.
Assay [3] concerns COLO 205.
The subject of assay [4] is HCT-15.
Assay [5] relates to HL-60.
Assay [6] has as its system HOP-92.
Assay [7] deals with K562.
Assay [8] concerns LOX IMVI.
Assay [9] concerns MOLT-4.
The test system of assay [10] is OVCAR-8.
The test system of assay [11] is RPMI-8226.
The test system of assay [12] is SK-OV-3.
Assay [13] has as its system SNB-75.
Assay [14] concerns UACC-257.
Assay [15] deals with SK-MEL-5.
Assay [16] concerns TK-10.
The test system of assay [17] is MCF7.
Assay [18] concerns MDA-MB-231.
Assay [19] has as its system PC-3.

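A five-concentration, 48-hour dose response in 96-well plates underlies each endpoint, interpolated linearly between surrounding concentrations. Here, GI50 denotes the concentration required for 50% inhibition of growth.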 The source made the active and inactive calls. Cut-off read from the data, not from the text of the source: active = GI50 up to about 1.1 µM and inactive = higher.

Turning to `Cc1cccc(Cl)c1NC(=O)c1cccc([N+](=O)[O-])c1O`, the GI50 in assay [1] is 33 µM (inactive); in [2], 46.1 µM (inactive); in [3], 51.5 µM (inactive); in [4], 35.6 µM; in assay [5], > 10 µM (inactive); in [6], 23 µM (inactive). In addition, the GI50 is 36.7 µM (inactive) in assay [7]; 27.5 µM (inactive) in assay [8]; 29.2 µM (inactive) in [9]; 48.1 µM (inactive) in assay [10]; 21.2 µM (inactive) in assay [11]; 43.2 µM (inactive) in assay [12]. In addition, the results for the GI50 in assay [13] and in assay [14] were 33.9 µM (inactive) and 28.4 µM (inactive), respectively.

Turning to `CCOC(=O)NC(=O)c1cn(C2OC(COC(=O)CCCCCCCCC(=O)OCC3OC(n4cc(C(=O)NC(=O)OCC)c(=O)[nH]c4=O)C4OC(C)(C)OC34)C3OC(C)(C)OC32)c(=O)[nH]c1=O` (configuration not stated), the GI50 in assay [1] is > 100 µM (inactive); in assay [2] it was > 100 µM (inactive); in [4] it was above 100 µM; in [5] it was 63.5 µM (inactive); in assay [6], 67.1 µM (inactive); in assay [7], 40.8 µM (inactive). In addition, the GI50 in assay [8] is > 100 µM (inactive); in assay [9] it was 35.6 µM (inactive); in [10], 78 µM (inactive); in assay [11], 44 µM (inactive); in assay [15], 54.1 µM (inactive); in assay [13], 56.9 µM (inactive). Moreover, the GI50 in assay [16] and in [14] was > 100 µM (inactive) in each case.

As for `CCCCCCCCCCCCCCCCCCNC(=S)N/C=C1\C(=O)Nc2ccccc2C1=O`, the GI50 in assay [1] is 21.4 µM (inactive); in assay [2], 16.9 µM (inactive); in [3], 17.4 µM (inactive); in assay [4] it was 15.6 µM; in assay [5], 4.92 µM (inactive); in assay [6], 15.8 µM (inactive). In addition, the GI50 in assay [8] was 16.3 µM (inactive); in assay [17], 20.2 µM (inactive); in [18] it was 14.9 µM (inactive); in assay [9] it was 12.7 µM (inactive); in assay [10], 15.6 µM (inactive); in assay [15] it was 24.2 µM (inactive). Moreover, the GI50 in [12] is 19.2 µM (inactive); in assay [13], 13.2 µM (inactive); in [16], 23.3 µM (inactive); in [14] it was 17.1 µM (inactive).

Turning to `CO/C(=N\N=C\c1ccc(OC)cc1OC)c1ccncc1`, the GI50 in [1] is > 10 µM (inactive); in [3] it was > 10 µM (inactive); in assay [4], above 10 µM; in assay [5], > 10 µM (inactive); in assay [7], > 10 µM (inactive); in [8], > 10 µM (inactive). Moreover, the GI50 in assay [17], in [9], in assay [10], in assay [19], in [11] and in assay [15] was > 10 µM (inactive) throughout. The GI50 in [12], in [13] and in assay [16] was > 10 µM (inactive) each time.

As for `Cc1csc(=S)n1OC(=O)NC1CCCCC1`, the GI50 in assay [1] was > 92.5 µM (inactive); in assay [2], > 100 µM (inactive); in assay [4], above 100 µM; in assay [5], 17.9 µM (inactive); in assay [6] it was 7.89 µM (inactive); in [7] it was 31 µM (inactive). In addition, the GI50 in [8] is 65.3 µM (inactive); in assay [9] it was 9.77 µM (inactive); in [10], > 100 µM (inactive); in assay [11], 23.6 µM (inactive); in assay [15], > 51.4 µM (inactive); in [12], > 100 µM (inactive). The figures for the GI50 in assay [13], in assay [16] and in assay [14] were > 79.4 µM (inactive), > 100 µM (inactive) and > 60.1 µM (inactive), respectively.

As to `Nc1nc(N)c(-c2ccccc2)c(CCC(=O)Nc2ccc(Cl)cc2)n1`, the GI50 in [1] was > 100 µM (inactive); in assay [2], > 100 µM (inactive); in assay [3], > 100 µM (inactive); in assay [4] it was above 100 µM; in assay [5], > 100 µM (inactive); in assay [6] it was > 100 µM (inactive). Also, the GI50 in assay [7] was 76.2 µM (inactive); in [9] it was > 100 µM (inactive); in assay [10], > 100 µM (inactive); in assay [11], > 100 µM (inactive); in assay [15], > 100 µM (inactive); in [12], > 100 µM (inactive). The GI50 in assay [13], in [16] and in assay [14] was > 100 µM (inactive) throughout.

For the compound `Cc1cccc(NC(=O)C(=O)C(C(=O)c2ccc3ccccc3c2)C2OC(=O)c3ccccc32)c1C` (configuration not stated), the GI50 in [1] was 10.1 µM (inactive); in [2], 11.9 µM (inactive); in [3], 11.5 µM (inactive); in assay [4] it was 15.5 µM; in assay [5] it was 11.4 µM (inactive); in assay [6], 11.8 µM (inactive). Besides, the GI50 is 15.7 µM (inactive) in assay [7]; 13.2 µM (inactive) in [8]; 3.78 µM (inactive) in assay [9]; 10.3 µM (inactive) in assay [10]; 6.98 µM (inactive) in [11]; 12.4 µM (inactive) in assay [15]. The GI50 is 12.7 µM (inactive) in [12], 8.49 µM (inactive) in [13], 23.3 µM (inactive) in assay [16] and 10.7 µM (inactive) in assay [14].

Take `CCOc1ccc(NC2=NC(=O)C(CC(=O)Nc3ccccc3[N+](=O)[O-])S2)cc1` (configuration not stated): the GI50 is > 100 µM (inactive) in assay [1]; > 100 µM (inactive) in assay [2]; above 100 µM in assay [4]; > 100 µM (inactive) in assay [5]; > 100 µM (inactive) in [6]; > 100 µM (inactive) in assay [7]. Besides, the GI50 in assay [8], in assay [9], in [10], in assay [11], in [15] and in [13] was > 100 µM (inactive) throughout. Also, the GI50 in [16] and in [14] was > 100 µM (inactive) throughout.

With `CCOC(=O)NC(=O)c1cn(CCOC(=O)CCCCCCCCC(=O)OCCn2cc(C(=O)NC(=O)OCC)c(=O)[nH]c2=O)c(=O)[nH]c1=O`, the GI50 in assay [1] is > 100 µM (inactive); in assay [2] it was > 100 µM (inactive); in assay [4], above 100 µM; in [5], > 100 µM (inactive); in [6] it was > 100 µM (inactive); in [7], > 100 µM (inactive). The GI50 in [8], in [9], in assay [10], in assay [11], in assay [15] and in assay [13] was > 100 µM (inactive) each time. Further, the GI50 in [16] and in [14] was > 100 µM (inactive) in each case.

On to `CSc1ncc2c(n1)C(C#N)C1Sc3ccccc3N1C2=O` (configuration not stated), for which the GI50 was > 100 µM (inactive) in assay [1]; > 100 µM (inactive) in assay [2]; > 100 µM (inactive) in [3]; above 100 µM in assay [4]; 80 µM (inactive) in assay [6]; > 100 µM (inactive) in assay [8]. Further, the GI50 in assay [18], in assay [9], in assay [10], in [11], in [15] and in assay [12] was > 100 µM (inactive) in each case. Further, the GI50 is 22.9 µM (inactive) in assay [13], 90.4 µM (inactive) in assay [16] and > 100 µM (inactive) in [14].

Turning to `O=[As](O)(O)c1cc(/N=N/c2ccc(-c3ccc(/N=N/c4cc([As](=O)(O)O)c(O)cc4O)cc3)cc2)c(O)cc1O`, the GI50 in assay [1] is > 56 µM (inactive); in assay [2], > 79.6 µM (inactive); in assay [3] it was > 100 µM (inactive); in [4], 97.1 µM; in assay [5] it was > 48.8 µM (inactive); in assay [6], > 100 µM (inactive). Moreover, the GI50 in [7] was > 55.5 µM (inactive); in assay [8], > 100 µM (inactive); in [9] it was > 100 µM (inactive); in [10] it was > 100 µM (inactive); in [11], > 100 µM (inactive); in [15] it was > 88.1 µM (inactive). The GI50 in assay [12], in assay [13], in assay [16] and in assay [14] was > 100 µM (inactive) throughout.

For the compound `Nc1c2ccccc2nc2c1ccc1ncccc12`, the GI50 in assay [2] was 25.7 µM (inactive); in assay [3], 20.3 µM (inactive); in assay [4], 14.2 µM; in assay [5] it was 4.32 µM (inactive); in [6], 22.8 µM (inactive); in assay [7], 12.5 µM (inactive). The GI50 in [8] was 6.03 µM (inactive); in assay [17], 6.46 µM (inactive); in assay [18], 20.8 µM (inactive); in assay [9] it was 5.15 µM (inactive); in assay [10], 21.2 µM (inactive); in assay [19], 16.3 µM (inactive). In addition, the GI50 is 28.4 µM (inactive) in assay [15]; 30.5 µM (inactive) in [12]; 22.3 µM (inactive) in assay [13]; 34.1 µM (inactive) in [16]; 28.8 µM (inactive) in assay [14].

`COC1=CCC=C(C[C@@H]2NCCc3cc(OC)c(OC)cc32)C1`: the GI50 in assay [1] is > 100 µM (inactive); in [2], > 100 µM (inactive); in assay [3], > 100 µM (inactive); in [4], above 100 µM; in assay [5], > 100 µM (inactive); in [6] it was 41.5 µM (inactive). The GI50 in [7], in [8], in [9], in [10], in [11] and in assay [15] was > 100 µM (inactive) throughout. Moreover, the GI50 in [12], in assay [13], in [16] and in assay [14] was > 100 µM (inactive) throughout.
